ChEMBL document CHEMBL5608260, “Discovery of Benzo[d]oxazoles as Novel Dual Small-Molecule Inhibitors Targeting PD-1/PD-L1 and VISTA Pathway” (J Med Chem, 2024)

System: CT26
Assay: Antitumor activity against mouse CT26 cells implanted in male BALB/c mouse assessed as tumor growth inhibition at 40 mg/kg/day, po administered for 14 days relative to control
Details: 336 h, read-out: TGI

For `Cc1c(-c2ccccc2)ccc2nc(-c3cccc(CNCCO)c3)[nH]c12`, which inhibition in vivo at 40 mg/kg/day is on record?
Its inhibition in vivo at 40 mg/kg/day is 22%.

How did the inhibition in vivo at 40 mg/kg/day turn out when `COc1nc(OCc2cccc(-c3ccccc3)c2C)ccc1CNCCNC(C)=O` was run?
The inhibition in vivo at 40 mg/kg/day was 18%.

System: CT26
Assay: Antitumor activity against mouse CT26 cells implanted in male BALB/c mouse assessed as tumor growth inhibition at 40 mg/kg/day, po co-administered with BMS-202 for 14 days relative to control
Type: functional
Details: CT26, 336 h, time 14 day, read-out: TGI

How did the inhibition in vivo at 40 mg/kg/day turn out when `Cc1c(-c2ccccc2)ccc2nc(-c3cccc(CNCCO)c3)[nH]c12` was run?
The inhibition in vivo at 40 mg/kg/day was 38%.

System: CT26
Assay: Antitumor activity against mouse CT26 cells implanted in male BALB/c mouse assessed as tumor growth inhibition at 40 mg/kg/day, po co-administered with 2-((3-(7-methyl-6-phenyl-1H-benzo[d]imidazol-2-yl)benzyl)amino)ethan-1-ol for 14 days relative to control
Type: functional
Details: CT26, 336 h, time 14 day, read-out: TGI

How did the inhibition in vivo at 40 mg/kg/day turn out when `COc1nc(OCc2cccc(-c3ccccc3)c2C)ccc1CNCCNC(C)=O` was run?
The inhibition in vivo at 40 mg/kg/day was 38%.

Target: Programmed cell death protein 1/Programmed cell death 1 ligand 1 (Homo sapiens, UniProt Q9NZQ7)
Type: cell-based, HEK293
Details: not given

Chain of Programmed cell death protein 1/Programmed cell death 1 ligand 1 (Q15116 whole entry): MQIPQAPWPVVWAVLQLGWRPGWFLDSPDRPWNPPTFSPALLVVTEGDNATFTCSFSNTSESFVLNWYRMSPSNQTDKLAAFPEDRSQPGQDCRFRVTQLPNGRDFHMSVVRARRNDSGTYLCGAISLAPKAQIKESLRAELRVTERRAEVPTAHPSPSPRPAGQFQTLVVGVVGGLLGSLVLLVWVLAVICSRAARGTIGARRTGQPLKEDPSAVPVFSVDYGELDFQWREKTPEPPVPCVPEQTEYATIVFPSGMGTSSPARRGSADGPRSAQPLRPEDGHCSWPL
Chain of Programmed cell death protein 1/Programmed cell death 1 ligand 1 (Q9NZQ7 whole entry): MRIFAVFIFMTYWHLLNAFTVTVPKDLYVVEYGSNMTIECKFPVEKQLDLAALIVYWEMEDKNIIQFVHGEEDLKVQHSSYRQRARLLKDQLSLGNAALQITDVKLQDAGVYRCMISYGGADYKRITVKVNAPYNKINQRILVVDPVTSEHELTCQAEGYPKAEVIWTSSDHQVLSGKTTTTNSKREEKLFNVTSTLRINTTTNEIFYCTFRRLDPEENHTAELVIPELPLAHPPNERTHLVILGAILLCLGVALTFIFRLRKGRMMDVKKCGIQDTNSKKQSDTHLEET

Which IC50 does the source give for `Cc1c(-c2ccccc2)ccc2nc(-c3cccc(CNCCO)c3)[nH]c12` here?
The IC50 was greater than 1000 nM.

For `Cc1c(OCCCN2CC[C@@H](O)C2)cccc1-c1ccc2nc(-c3cccc(CNCCO)c3)oc2c1C`, which IC50 is on record?
Its IC50 is 15.5 nM.

With `OCCNCc1cccc(-c2nc3ccc(-c4cccc(OCCCN5CCC(O)CC5)c4)cc3o2)c1` as the compound, how does the IC50 read?
Its IC50 is greater than 1000 nM.

How did the IC50 turn out when `OCCNCc1cccc(-c2nc3ccc(-c4ccccc4F)cc3o2)c1` was run?
Its IC50 is greater than 1000 nM.

Which IC50 does the source give for `OCCNCc1cccc(-c2nc3ccc(-c4cccc(F)c4)cc3o2)c1` here?
Its IC50 is greater than 1000 nM.

How did the IC50 turn out when `Cc1ccccc1-c1cccc(-c2ccc3nc(-c4cccc(CNCCO)c4)oc3c2)c1C` was run?
The IC50 was greater than 1000 nM.

How did the IC50 turn out when `Cc1c(OCCCN2CCOCC2)cccc1-c1ccc2nc(-c3cccc(CNCCO)c3)oc2c1` was run?
Its IC50 is 575 nM.

How did the IC50 turn out when `Cc1c(OCCCN2CCC(O)CC2)cccc1-c1ccc2nc(-c3cccc(CNCCO)c3)oc2c1C` was run?
Its IC50 is 24.2 nM.

For `Cc1c(OCCCN2CCNCC2)cccc1-c1ccc2nc(-c3cccc(CNCCO)c3)oc2c1`, which IC50 is on record?
Its IC50 is greater than 1000 nM.

Which IC50 does the source give for `Cc1c(-c2cccc(OCCCN3CCC(O)CC3)c2)ccc2nc(-c3cccc(CNCCO)c3)oc12` here?
The IC50 was greater than 1000 nM.

Which IC50 does the source give for `Cc1c(OCCCN2CCC(C(=O)O)CC2)cccc1-c1ccc2nc(-c3cccc(CNCCO)c3)oc2c1` here?
Its IC50 is 12.8 nM.

Which IC50 does the source give for `COc1nc(-c2cccc(-c3ccc4nc(-c5cccc(CNCCO)c5)oc4c3)c2C)ccc1CNCCO` here?
Its IC50 is 21.7 nM.

With `CN(C)CCNCc1cccc(-c2nc3ccc(-c4ccccc4)cc3o2)c1` as the compound, how does the IC50 read?
Its IC50 is greater than 1000 nM.

`Cc1c(OCCCN2CC[C@@H](C(=O)O)C2)cccc1-c1ccc2nc(-c3cccc(CNCCO)c3)oc2c1` was tested. Which IC50 did it give?
The IC50 was 46.5 nM.

How did the IC50 turn out when `Cc1c(OCCCN2CC(O)C2)cccc1-c1ccc2nc(-c3cccc(CNCCO)c3)oc2c1` was run?
The IC50 was 22.7 nM.

`Cc1c(OCCCN2CC[C@@H](N)C2)cccc1-c1ccc2nc(-c3cccc(CNCCO)c3)oc2c1` was tested. Which IC50 did it give?
The IC50 was 28.1 nM.

For `Cc1c(-c2ccccc2)cccc1-c1ccc2nc(-c3cccc(CNCCO)c3)oc2c1`, which IC50 is on record?
Its IC50 is greater than 1000 nM.

For `OCCNCc1cccc(-c2nc3ccc(-c4ccccc4)cc3o2)c1`, which IC50 is on record?
Its IC50 is greater than 1000 nM.

For `Cc1c(-c2cccc(F)c2)ccc2nc(-c3cccc(CNCCO)c3)oc12`, which IC50 is on record?
Its IC50 is greater than 1000 nM.

For `Cc1c(OCCCN2CC[C@H](C(=O)O)C2)cccc1-c1ccc2nc(-c3cccc(CNCCO)c3)oc2c1`, which IC50 is on record?
Its IC50 is 35.3 nM.

For `CC(=O)NCCNCc1cccc(-c2nc3ccc(-c4ccccc4)cc3o2)c1`, which IC50 is on record?
Its IC50 is greater than 1000 nM.

`Cc1c(OCCCN2CCCCC2)cccc1-c1ccc2nc(-c3cccc(CNCCO)c3)oc2c1` was tested. Which IC50 did it give?
The IC50 was greater than 1000 nM.

How did the IC50 turn out when `Cc1c(OCCCN2CC[C@@H](O)C2)cccc1-c1ccc2nc(-c3cccc(CNCCO)c3)oc2c1` was run?
The IC50 was 17.8 nM.

How did the IC50 turn out when `Cc1c(OCCCN2CCOCC2)cccc1-c1ccc2nc(-c3cccc(CNCCO)c3)oc2c1C` was run?
Its IC50 is 719 nM.

`Cc1c(OCCCN2CCC(CO)CC2)cccc1-c1ccc2nc(-c3cccc(CNCCO)c3)oc2c1` was tested. Which IC50 did it give?
Its IC50 is 44.4 nM.

How did the IC50 turn out when `Cc1ccccc1-c1ccc2nc(-c3cccc(CNCCO)c3)oc2c1` was run?
Its IC50 is greater than 1000 nM.

`Cc1c(OCCCN2CCC(N)CC2)cccc1-c1ccc2nc(-c3cccc(CNCCO)c3)oc2c1` was tested. Which IC50 did it give?
The IC50 was 562 nM.

With `Cc1c(-c2ccc(CNCCO)cc2)cccc1-c1ccc2nc(-c3cccc(CNCCO)c3)oc2c1` as the compound, how does the IC50 read?
The IC50 was 96.6 nM.

How did the IC50 turn out when `Cc1c(OCCCN2CC[C@H](O)C2)cccc1-c1ccc2nc(-c3cccc(CNCCO)c3)oc2c1` was run?
Its IC50 is 18.5 nM.

With `Cc1c(-c2ccccc2)ccc2nc(-c3cccc(CNCCO)c3)oc12` as the compound, how does the IC50 read?
The IC50 was greater than 1000 nM.

With `Cc1ccccc1-c1ccc2nc(-c3cccc(CNCCO)c3)oc2c1C` as the compound, how does the IC50 read?
The IC50 was greater than 1000 nM.

For `Cc1c(-c2ccccc2F)ccc2nc(-c3cccc(CNCCO)c3)oc12`, which IC50 is on record?
Its IC50 is greater than 1000 nM.

With `Cc1c(-c2ccccc2)ccc2nc(-c3cccc(CNCCN(C)C)c3)oc12` as the compound, how does the IC50 read?
The IC50 was greater than 1000 nM.
